The record followed here is US20130297040A1, “IMPLANT HAVING A CORE AND A TUBE ENCASING THE CORE” (UNIVERSITE DE LIEGE, priority 2011, published 2013).

This data set is described as follows: Pharmacokinetic study of celecoxib implants in Wistar rats.

As to `NS(=O)(=O)c1ccc(-n2nc(C(F)(F)F)cc2-c2ccc(CO)cc2)cc1` [HO-celecoxib], the “presence of the metabolite HO-celecoxib after implantation” value (celecoxib implant) was “present in the rats during more than two years”. Moreover, for the setting “peritoneal liquid”, the “concentration of HO-celecoxib in peritoneal liquid, intraperitoneal vs subcutaneous implant” value is “tendency to a higher concentration”. The “concentration of HO-celecoxib in serum, intraperitoneal vs subcutaneous implant” value (serum) was “No differences”.

In the case of `NS(=O)(=O)c1ccc(-n2nc(C(F)(F)F)cc2-c2ccc(C(=O)O)cc2)cc1` [HOOC-celecoxib], the “presence of the metabolite HOOC-celecoxib after implantation” value (celecoxib implant) is recorded as “present in the rats during more than two years”. Also, the “concentration of HOOC-celecoxib in the serum and in the PF, intraperitoneal vs subcutaneous implant” value (serum and peritoneal liquid) was “No differences”.

As for `Cc1ccc(-c2cc(C(F)(F)F)nn2-c2ccc(S(N)(=O)=O)cc2)cc1` [celecoxib, reference compound], under “after implantation of celecoxib implant”, the metabolism of celecoxib result is on record as “metabolized in rats”.
